Test results taken from the supplement of paper PMC11451515.

Test system: P12-Ichikawa
Experiment: cell viability relative to DMSO control; higher = less cytotoxic
Conditions: 48 h
In short: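 Viability values are per-plate percentages of DMSO wells, with background from cell-free wells. Library compounds in DMSO were pin-dosed, in an 11-point threefold series from 47 μM to 0.79 nM, onto NOMO1 or SEM (500 cells/well) or P12-Ichikawa (1000 cells/well) leukemia cells in 1536-well plates (5 μl). Those cells had been adapted for at least four passages in each medium, and CellTiter-Glo One luminescence was read after 48 h at 37°C.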

[1] = HPLM + 10% dialyzed FBS, 0.000781 µM
[2] = HPLM + 10% dialyzed FBS, 0.00234 µM
[3] = HPLM + 10% dialyzed FBS, 0.00702 µM
[4] = HPLM + 10% dialyzed FBS, 0.0211 µM
[5] = HPLM + 10% dialyzed FBS, 0.0632 µM
[6] = HPLM + 10% dialyzed FBS, 0.19 µM
[7] = HPLM + 10% dialyzed FBS, 0.569 µM
[8] = HPLM + 10% dialyzed FBS, 1.71 µM
[9] = HPLM + 10% dialyzed FBS, 5.12 µM
[10] = HPLM + 10% dialyzed FBS, 15.4 µM
[11] = HPLM + 10% dialyzed FBS, 46.1 µM
[12] = RPMI 5 mM glucose + 10% FBS, 0.000781 µM
[13] = RPMI 5 mM glucose + 10% FBS, 0.00234 µM
[14] = RPMI 5 mM glucose + 10% FBS, 0.00702 µM
[15] = RPMI 5 mM glucose + 10% FBS, 0.0211 µM
[16] = RPMI 5 mM glucose + 10% FBS, 0.0632 µM
[17] = RPMI 5 mM glucose + 10% FBS, 0.19 µM
[18] = RPMI 5 mM glucose + 10% FBS, 0.569 µM
[19] = RPMI 5 mM glucose + 10% FBS, 1.71 µM
[20] = RPMI 5 mM glucose + 10% FBS, 5.12 µM
[21] = RPMI 5 mM glucose + 10% FBS, 15.4 µM
[22] = RPMI 5 mM glucose + 10% FBS, 46.1 µM
[23] = RPMI 5 mM glucose + 10% dialyzed FBS, 0.000781 µM
[24] = RPMI 5 mM glucose + 10% dialyzed FBS, 0.00234 µM
[25] = RPMI 5 mM glucose + 10% dialyzed FBS, 0.00702 µM
[26] = RPMI 5 mM glucose + 10% dialyzed FBS, 0.0211 µM
[27] = RPMI 5 mM glucose + 10% dialyzed FBS, 0.0632 µM
[28] = RPMI 5 mM glucose + 10% dialyzed FBS, 0.19 µM
[29] = RPMI 5 mM glucose + 10% dialyzed FBS, 0.569 µM
[30] = RPMI 5 mM glucose + 10% dialyzed FBS, 1.71 µM
[31] = RPMI 5 mM glucose + 10% dialyzed FBS, 5.12 µM
[32] = RPMI 5 mM glucose + 10% dialyzed FBS, 15.4 µM
[33] = RPMI 5 mM glucose + 10% dialyzed FBS, 46.1 µM

Row | SMILES | cell viability [1] [%] | cell viability [2] [%] | cell viability [3] [%] | cell viability [4] [%] | cell viability [5] [%] | cell viability [6] [%] | cell viability [7] [%] | cell viability [8] [%] | cell viability [9] [%] | cell viability [10] [%] | cell viability [11] [%] | cell viability [12] [%] | cell viability [13] [%] | cell viability [14] [%] | cell viability [15] [%] | cell viability [16] [%] | cell viability [17] [%] | cell viability [18] [%] | cell viability [19] [%] | cell viability [20] [%] | cell viability [21] [%] | cell viability [22] [%] | cell viability [23] [%] | cell viability [24] [%] | cell viability [25] [%] | cell viability [26] [%] | cell viability [27] [%] | cell viability [28] [%] | cell viability [29] [%] | cell viability [30] [%] | cell viability [31] [%] | cell viability [32] [%] | cell viability [33] [%]
1 | O=C(NCC[S+](=O)([O-])c1ccc(C(F)(F)F)cn1)c1ccc(Cl)cc1 | 115 | 116 | 121 | 115 | 118 | 117 | 115 | 117 | 110 | 112 | 108 | 117 | 124 | 118 | 127 | 117 | 115 | 111 | 107 | 119 | 107 | 109 | 112 | 126 | 121 | 121 | 120 | 116 | 115 | 103 | 115 | 102 | 102
2 | CNC(=O)c1ccc(-c2cnc3ncc(Cc4ccc5ncccc5c4)n3n2)cc1F | 113 | 119 | 125 | 129 | 136 | 125 | 134 | 120 | 135 | 124 | 126 | – | – | – | – | – | – | – | – | – | – | – | – | – | – | – | – | – | – | – | – | – | –
3 | COC1=C(N2CCNC(C)C2)C(=CC3=C1N(\C=C(C(O)=O)/C3=O)C4CC4)F (centres undefined) | 101 | 105 | 112 | 101 | 91.1 | 111 | 106 | 106 | 98.1 | 101 | 87.5 | 102 | 105 | 108 | 99.6 | 88.2 | 105 | 100 | 106 | 17.8 | 96.7 | 76.9 | 94.5 | 101 | 99.2 | 104 | 95.8 | 98.1 | 99.9 | 104 | 101 | 99.8 | 78.6
4 | CC1CCC(C(=O)N(c2cc(C#CC(C)(C)C)sc2C(=O)O)C2CCC(O)CC2)CC1 (centres undefined) | 102 | 91.2 | 98.4 | 95.9 | 95.1 | 95.7 | 93.1 | 88.2 | 83.2 | 59.5 | 49 | 91.2 | 96.3 | 92.4 | 92.5 | 95.6 | 87 | 96.7 | 75.9 | 71.9 | 49.2 | 45.5 | 85.8 | 92.4 | 77.3 | 95 | 86.3 | 83.8 | 88.5 | 77.4 | 69.2 | 54.3 | 38.4
5 | CC1(C)Cc2c(-c3ccccc3)c(-c3ccc(Cl)cc3)c(CC(=O)O)n2C1 | 120 | 118 | 117 | 122 | 118 | 110 | 107 | 112 | 105 | 103 | 95.6 | 115 | 112 | 118 | 118 | 110 | 107 | 111 | 110 | 97.8 | 99.6 | 83.5 | 106 | 108 | 115 | 102 | 107 | 102 | 106 | 104 | 103 | 98.1 | 86
6 | CCc1cncnc1N1CCN(Cc2nc3cc(C(F)(F)F)ccc3[nH]2)CC1 | 103 | 106 | 100 | 102 | 103 | 102 | 94.1 | 97.9 | 85.7 | 84 | 58 | 101 | 97.6 | 95.2 | 97.2 | 101 | 88.8 | 97.2 | 101 | 88.1 | 74.9 | 44.9 | 96.6 | 105 | 102 | 103 | 95.6 | 97.3 | 96.4 | 101 | 86.5 | 84.7 | 55.3
7 | NC1(Cc2ccc(Cl)cc2)CCN(c2ncnc3[nH]ccc23)CC1 | 105 | 109 | 105 | 108 | 106 | 103 | 102 | 94.7 | 82.3 | 65.8 | 48.3 | 101 | 99.4 | 101 | 99.7 | 91.9 | 97.8 | 84.7 | 73.1 | 53.7 | 40.7 | 28.5 | 103 | 103 | 104 | 102 | 102 | 91.1 | 91 | 79.6 | 66.9 | 47 | 34.5
8 | O=C(OC)[C@]12CC[C@@]3(C)[C@]4(C)CC[C@H]5[C@@](C)(C)C(=O)C(=C[C@]5(C)C4=CC(=O)[C@@H]3[C@@H]2C[C@](C)(C)CC1)C#N | 100 | 100 | 96.3 | 102 | 104 | 105 | 99.8 | 97.5 | 99.2 | 2.24 | 2.66 | 92.7 | 96.7 | 97.1 | 90.3 | 109 | 100 | 107 | 102 | 97 | 2.4 | 2.78 | 95.8 | 93.3 | 92.3 | 98.3 | 101 | 108 | 105 | 90.3 | 90.7 | 2.44 | 2.54
9 | CC\1=C(C(\N=C(/N1)C2=CC(=NC=C2)Cl)C3=C(F)C=C(Cl)C=C3)/C(=O)NC4=C(F)C=C5[NH]N=CC5=C4 (centres undefined) | 103 | 103 | 109 | 112 | 111 | 107 | 112 | 115 | 106 | 77.5 | 4.67 | 87.6 | 114 | 118 | 104 | 102 | 113 | 110 | 113 | 110 | 71.6 | 8.24 | 105 | 121 | 110 | 116 | 118 | 118 | 121 | 124 | 112 | 82.9 | 14.7
10 | CC[C@H](CC#N)OC(=O)N[C@@H](C)c1cccc(NC(=O)Nc2ccc(-c3cnco3)c(OC)c2)c1 | 117 | 112 | 120 | – | 111 | 107 | 106 | 74.9 | 49.8 | 49.1 | 40.6 | 119 | 121 | 118 | 117 | 132 | 113 | 97.2 | 65.9 | 44.3 | 33.4 | 30.4 | 112 | 120 | 111 | 120 | 121 | 110 | 90.4 | 59.1 | 42.3 | 40.2 | 40.6
11 | COc1ccc(CC2NCCc3cc(OC)c(OC)cc32)cc1OC (centres undefined) | 88.9 | 96.3 | 98.2 | 99.8 | 95 | 98.9 | 97.4 | 95.5 | 94 | 94 | 96.7 | 85.5 | 88.7 | 89 | 87.1 | 83.2 | 86 | 90.9 | 89.2 | 82.3 | 92.2 | 84.8 | 95 | 92.9 | 86.7 | 87.9 | 82.1 | 92.4 | 85.3 | 88.2 | 87.8 | 91.3 | 82.4
12 | CCN(CC)CC#CCOC(=O)C(O)(c1ccccc1)C1CCCCC1 (centres undefined) | 105 | 118 | 113 | 78.3 | 119 | 110 | 120 | 117 | 118 | 118 | 106 | – | – | – | – | – | – | – | – | – | – | – | 118 | 119 | 120 | 85.5 | 137 | 135 | 125 | 123 | 122 | 117 | 111
13 | ClC1=C(N\C2=N\CCN2)C3=NSN=C3C=C1 | 106 | 117 | 122 | 130 | 119 | 117 | 119 | 115 | 120 | 127 | 124 | – | – | – | – | – | – | – | – | – | – | – | 107 | 115 | 114 | 127 | 124 | 116 | 129 | 115 | 124 | 120 | 127
14 | CC\1=C/C=C\C=[N]1[Pt](N)(Cl)Cl | 98.1 | 108 | 113 | 108 | 105 | 109 | 102 | 114 | 104 | 107 | 108 | 98.1 | 98.4 | 102 | 104 | 118 | 118 | 114 | 106 | 99.1 | 108 | 97.3 | 102 | 109 | 98.3 | 107 | 114 | 112 | 110 | 105 | 105 | 87.2 | 91.4
15 | C[C@]\12CC[C@H](O)CC1=C/CC3C2CC[C@@]\4(C)C3C\C=C4[N]5C=NC6=C5C=CC=C6 (some centres undefined) | 94.2 | 95.5 | 102 | 106 | 103 | 105 | 105 | 104 | 107 | 106 | 107 | 82.9 | 94.2 | 93.8 | 112 | 107 | 106 | 105 | 105 | 102 | 99.5 | 98.5 | 89.6 | 97.4 | 103 | 108 | 103 | 102 | 103 | 100 | 107 | 104 | 102
16 | CCCCCCCCCCCCCCCCCCCCCCO | 122 | 125 | 118 | 125 | 126 | 126 | 132 | 133 | 127 | 137 | 140 | – | – | – | – | – | – | – | – | – | – | – | – | – | – | – | – | – | – | – | – | – | –
17 | COC1=CC=CC=C1C2=CC=CC(=C2)C/3=C(O)/C4=CC(=C(Cl)C=C4NC3=O)C#N | 98.4 | 106 | 111 | 114 | 107 | 112 | 109 | 92.8 | 10.2 | 6.7 | 10.6 | 99.3 | 110 | 107 | 116 | 123 | 115 | 114 | 106 | 64.3 | 4.25 | 5.71 | 95.2 | 99.1 | 105 | 105 | 99.6 | 101 | 110 | 94 | 45.5 | 5.98 | 6.01
